Experiments:
Format in all cases: in vivo
[1] = test system: Abutilon theophrasti (ABUTH); test: Glasshouse herbicide test, post-emergence; settings: POST Application; 500 g/h; evaluated after 13 days
Experimental: (§1) Seeds of a variety of test species are shown in standard soil in pots (Lolium perenne (LOLPE), Amaranthus retoflexus (AMARE), Abutilon theophrasti (ABUTH), Setaria faberi (SETFA), Echinochloa crus-galli (ECHCG), Ipomoea hederacea (IPOHE)). After cultivation for one day (pre-emergence) or after 8 days cultivation (post-emergence) under controlled conditions in a glasshouse (at 24/16° C., day/night; 14 hours light; 65% humidity), the plants are sprayed with an aqueous spray solution derived from the formulation of the technical active ingredient in acetone/water (50:50) solution containing 0.5% Tween 20 (polyoxyethelyene sorbitan monolaurate, CAS RN 9005-64-5). Compounds are applied at 500 g/h. The test plants are then grown in a glasshouse under controlled conditions in a glasshouse (at 24/16° C., day/night; 14 hours light; 65% humidity) and watered twice daily. After 13 days for pre and post-emergence, the test is evaluated for the percentage damage caused to the plant. The biological activities are shown in the following table on a five point scale (5=80-100%; 4=60-79%; 3=40-59%; 2=20-39%; 1=0-19%).

[2] = test system: Amaranthus retoflexus (AMARE); test: Glasshouse herbicide test, post-emergence; settings: POST Application; 500 g/h; evaluated after 13 days
Experimental: as §1

[3] = test system: Echinochloa crus-galli (ECHCG); test: Glasshouse herbicide test, post-emergence; settings: POST Application; 500 g/h; evaluated after 13 days
Experimental: as §1

[4] = test system: Ipomoea hederacea (IPOHE); test: Glasshouse herbicide test, post-emergence; settings: POST Application; 500 g/h; evaluated after 13 days
Experimental: as §1

Setaria faberi (SETFA) [5] = test: Glasshouse herbicide test, post-emergence; settings: POST Application; 500 g/h; evaluated after 13 days
Experimental: as §1

[6] = test system: Abutilon theophrasti (ABUTH); test: Glasshouse herbicide test, pre-emergence; settings: PRE Application; 500 g/h; evaluated after 13 days
Experimental: as §1

[7] = test system: Amaranthus retoflexus (AMARE); test: Glasshouse herbicide test, pre-emergence; settings: PRE Application; 500 g/h; evaluated after 13 days
Experimental: as §1

[8] = test system: Echinochloa crus-galli (ECHCG); test: Glasshouse herbicide test, pre-emergence; settings: PRE Application; 500 g/h; evaluated after 13 days
Experimental: as §1

[9] = test system: Ipomoea hederacea (IPOHE); test: Glasshouse herbicide test, pre-emergence; settings: PRE Application; 500 g/h; evaluated after 13 days
Experimental: as §1

Setaria faberi (SETFA) [10] = test: Glasshouse herbicide test, pre-emergence; settings: PRE Application; 500 g/h; evaluated after 13 days
Experimental: as §1

CCCS(=O)(=O)c1ccc(C(=O)Nc2nnnn2C)c(Cl)c1N(C)OC [Compound 1.054]
5 (5=80-100%): percentage damage caused to the plant, five point scale, ABUTH [1] | percentage damage caused to the plant, five point scale, AMARE [2] | percentage damage caused to the plant, five point scale, ECHCG [3] | percentage damage caused to the plant, five point scale, IPOHE [4] | percentage damage caused to the plant, five point scale, SETFA (Setaria faberi (SETFA) [5]) | percentage damage caused to the plant, five point scale, ABUTH [6] | percentage damage caused to the plant, five point scale, AMARE [7] | percentage damage caused to the plant, five point scale, ECHCG [8] | percentage damage caused to the plant, five point scale, IPOHE [9] | percentage damage caused to the plant, five point scale, SETFA (Setaria faberi (SETFA) [10])

CCON(C)c1c(S(C)(=O)=O)ccc(C(=O)Nc2nnnn2CC)c1Cl [Compound 1.055]
5 (5=80-100%): percentage damage caused to the plant, five point scale, ABUTH [1] | percentage damage caused to the plant, five point scale, AMARE [2] | percentage damage caused to the plant, five point scale, ECHCG [3] | percentage damage caused to the plant, five point scale, IPOHE [4] | percentage damage caused to the plant, five point scale, SETFA (Setaria faberi (SETFA) [5]) | percentage damage caused to the plant, five point scale, ABUTH [6] | percentage damage caused to the plant, five point scale, AMARE [7] | percentage damage caused to the plant, five point scale, ECHCG [8] | percentage damage caused to the plant, five point scale, IPOHE [9] | percentage damage caused to the plant, five point scale, SETFA (Setaria faberi (SETFA) [10])

CCCON(C)c1c(S(C)(=O)=O)ccc(C(=O)Nc2nnnn2C)c1Cl [Compound 1.056]
5 (5=80-100%): percentage damage caused to the plant, five point scale, ABUTH [1] | percentage damage caused to the plant, five point scale, AMARE [2] | percentage damage caused to the plant, five point scale, ECHCG [3] | percentage damage caused to the plant, five point scale, IPOHE [4] | percentage damage caused to the plant, five point scale, SETFA (Setaria faberi (SETFA) [5]) | percentage damage caused to the plant, five point scale, ABUTH [6] | percentage damage caused to the plant, five point scale, AMARE [7] | percentage damage caused to the plant, five point scale, ECHCG [8] | percentage damage caused to the plant, five point scale, IPOHE [9] | percentage damage caused to the plant, five point scale, SETFA (Setaria faberi (SETFA) [10])

CC(C)ON(C)c1c(S(C)(=O)=O)ccc(C(=O)Nc2nnnn2C)c1Cl [Compound 1.057]
5 (5=80-100%): percentage damage caused to the plant, five point scale, ABUTH [1] | percentage damage caused to the plant, five point scale, AMARE [2] | percentage damage caused to the plant, five point scale, ECHCG [3] | percentage damage caused to the plant, five point scale, IPOHE [4] | percentage damage caused to the plant, five point scale, SETFA (Setaria faberi (SETFA) [5]) | percentage damage caused to the plant, five point scale, ABUTH [6] | percentage damage caused to the plant, five point scale, AMARE [7] | percentage damage caused to the plant, five point scale, ECHCG [8] | percentage damage caused to the plant, five point scale, IPOHE [9] | percentage damage caused to the plant, five point scale, SETFA (Setaria faberi (SETFA) [10])

CCS(=O)(=O)c1ccc(C(=O)Nc2nnnn2C)c(Cl)c1N(C)OC [Compound 1.062]
5 (5=80-100%): percentage damage caused to the plant, five point scale, ABUTH [1] | percentage damage caused to the plant, five point scale, AMARE [2] | percentage damage caused to the plant, five point scale, ECHCG [3] | percentage damage caused to the plant, five point scale, IPOHE [4] | percentage damage caused to the plant, five point scale, SETFA (Setaria faberi (SETFA) [5]) | percentage damage caused to the plant, five point scale, ABUTH [6] | percentage damage caused to the plant, five point scale, AMARE [7] | percentage damage caused to the plant, five point scale, ECHCG [8] | percentage damage caused to the plant, five point scale, IPOHE [9] | percentage damage caused to the plant, five point scale, SETFA (Setaria faberi (SETFA) [10])

From patent publication US11851411B2, “Herbicidal compounds” (SYNGENTA CROP PROTECTION AG, priority 2018, dated 2023)
